Data published in patent publication US20120264691 (published 2012).
“Also recorded” adds a separate entry of the source.

Legend:
[1] = Britton-Robinson buffer solution (pH 7.0); conditions: 40±1° C.
[2] = Britton-Robinson buffer solutions having pH of 2.1, 3.1, 4.0, 5.0, 6.0, 7.0 and 7.9; conditions: 40±1° C., up to 1 day
[3] = 0.1M HCl aqueous solution (pH: 1.1); conditions: 25±2° C., up to 72 hours
[4] = purified water, pH 4.7, or adjusted to pH 1.8, 3.9 (hydrochloric acid) and 7.8 (sodium hydroxide); conditions: 25±2° C., up to 3 day
[5] = Mcllvain buffer solutions (pH: 2.0, 3.0, 4.0, 5.0, 6.0, 7.0, 8.0); conditions: 25±2° C., up to 72 hours

Substance | cleaved bond ([1]; up to 14 days) | fragment found ([1]; up to 14 days) | cleaved bond [2] | cleaved bond [3] | cleaved bond [4] | fragment found [4] | cleaved bond [5] | fragment found ([1]; up to 3 days)
GSS(n-octanoyl)FLSPEHQRVQQRKESKKPPAKLQPR | hydrolytic cleavage of octanoyl group of human ghrelin, major, 4 days; also recorded: β-elimination of octanoyl group of human ghrelin, major, 4 days | degradation product D = desacyl human ghrelin (3-28), 14 days; also recorded: degradation product E = [N^α—CO—C(═CH2)—OH]human ghrelin(4-28), 14 days | hydrolytic cleavage of octanoyl group, 1 day | hydrolytic cleavage of octanoyl group, 8 hr. | hydrolytic cleavage of octanoyl group, 1 day | Dha compound, 1 day | hydrolytic cleavage of octanoyl group, 8 hr. | 
[3-Dehydroalanine]human ghrelin |  |  |  |  |  |  |  | [N^α—CO—C(═CH2)—OH]human ghrelin(4-28) (2nd degradation product of Dha compound), 3 days
desacylated human ghrelin |  | desacyl human ghrelin (3-28), major, 14 days |  |  |  |  |  | 
